Patent US20220332701A1, “HETEROCYCLIC COMPOUNDS AS BCR-ABL INHIBITORS” (ASCENTAGE PHARMA (SUZHOU) CO., LTD., priority 2019, published 2022)

Experiments:
BaF3(WT) = BaF3(WT) (Homo sapiens, UniProt P00519); assay: WST (CCK-8) anti-proliferation assay, BaF3 WT cells; conditions: read-out: BaF3(WT); anti-proliferative IC50, 72 h treatment, CCK-8, BaF3 WT
BaF3(T315I) = BaF3(T315I) (Homo sapiens, UniProt P00519, T315I, cells depend on it); assay: WST (CCK-8) anti-proliferation assay, BaF3 T315I cells; conditions: read-out: BaF3(T315I); anti-proliferative IC50, 72 h treatment, CCK-8, BaF3 T315I

GI50 (BaF3(WT)) [nM]	GI50 (BaF3(T315I)) [nM]	Compound
26	91	CC(C)N1CCc2cc(C(=O)Nc3ccc(OC(F)(F)Cl)cc3)cc(-c3ccn[nH]3)c21 [VII-1, N-(4-(chlorodifluoromethoxy)phenyl)-1-isopropyl-7-(1H-pyrazol-5-yl)indoline-5-carboxamide]
29	272	O=C(Nc1ccc(OC(F)(F)Cl)cc1)c1cc2c(c(-c3ccn[nH]3)c1)N(C1CCCC1)CC2 [VII-2, N-(4-(chlorodifluoromethoxy)phenyl)-1-cyclopentyl-7-(1H-pyrazol-5-yl) indoline-5-carboxamide]
123	574	O=C(Nc1ccc(OC(F)(F)Cl)cc1)c1cc2c(c(-c3ccn[nH]3)c1)N(C1CCCCC1)CC2 [VII-3, N-(4-(chlorodifluoromethoxy)phenyl)-1-cyclohexyl-7-(1H-pyrazol-5-yl) indoline-5-carboxamide]
42	136	CC(C)N1CCc2cc(C(=O)Nc3ccc(OC(F)(F)Cl)cc3)cc(-c3cncnc3)c21 [VII-4, N-(4-(chlorodifluoromethoxy)phenyl)-1-isopropyl-7-(pyrimidin-5-yl)indoline-5-carboxamide]
34	295	O=C(Nc1ccc(OC(F)(F)Cl)cc1)c1cc2c(c(-c3ccn[nH]3)c1)N(C1CC1)CC2 [VII-5, N-(4-(chlorodifluoromethoxy)phenyl)-1-cyclopropyl-7-(1H-pyrazol-5-yl) indoline-5-carboxamide]
112	250	O=C(Nc1ccc(OC(F)(F)Cl)cc1)c1cc2c(c(-c3ccn[nH]3)c1)N(CCO)CC2 [VII-6, N-(4-(chlorodifluoromethoxy)phenyl)-1-(2-hydroxyethyl)-7-(1H-pyrazol-5-yl) indoline-5-carboxamide]
113	144	CN1CCc2cc(C(=O)Nc3ccc(OC(F)(F)Cl)cc3)cc(-c3ccn[nH]3)c21 [VII-7, N-(4-(chlorodifluoromethoxy)phenyl)-1-methyl-7-(1H-pyrazol-5-yl)indoline-5-carboxamide]
23	468	O=C(Nc1ccc(OC(F)(F)Cl)cc1)c1cc2c(c(-c3ccn[nH]3)c1)N(C1CCC1)CC2 [VII-8, N-(4-(chlorodifluoromethoxy)phenyl)-1-cyclobutyl-7-(1H-pyrazol-5-yl) indoline-5-carboxamide]
403	4960	CS(=O)(=O)N1CCc2cc(C(=O)Nc3ccc(OC(F)(F)Cl)cc3)cc(-c3ccn[nH]3)c21 [VII-9, N-(4-(chlorodifluoromethoxy)phenyl)-1-(methylsulfonyl)-7-(1H-pyrazol-5-yl) indoline-5-carboxamide]
1160	3840	CC(C)C(=O)N1CCc2cc(C(=O)Nc3ccc(OC(F)(F)Cl)cc3)cc(-c3ccn[nH]3)c21 [VII-10, N-(4-(chlorodifluoromethoxy)phenyl)-1-isobutyryl-7-(1H-pyrazol-5-yl) indoline-5-carboxamide]
29	946	O=C(Nc1ccc(OC(F)(F)Cl)cc1)c1cc2c(c(-c3ccn[nH]3)c1)N(C1CC(CCl)C1)CC2 (stereo not drawn) [VII-11, N-(4-(chlorodifluoromethoxy)phenyl)-1-(3-(chloromethyl)cyclobutyl)-7-(1H-pyrazol-3-yl)indoline-5-carboxamide]
112	123	O=C(Nc1ccc(OC(F)(F)Cl)cc1)c1cc2c(c(-c3ccn[nH]3)c1)N(C1CC(CO)C1)CC2 (stereo not drawn) [VII-12, N-(4-(chlorodifluoromethoxy)phenyl)-1-(3-(hydroxymethyl)cyclobutyl)-7-(1H-pyrazol-3-yl)indoline-5-carboxamide]
266	1410	CC(C)N1c2c(cc(C(=O)Nc3ccc(OC(F)(F)Cl)cc3)cc2-c2ccn[nH]2)CC1CN(C)C (stereo not drawn) [VII-13, N-(4-(chlorodifluoromethoxy)phenyl)-2-((dimethylamino)methyl)-1-isopropyl-7-(1H-pyrazol-5-yl)indoline-5-carboxamide]
56	660	CC(C)N1c2c(cc(C(=O)Nc3ccc(OC(F)(F)Cl)cc3)cc2-c2cncnc2)CC1C(=O)N1CC(O)C1 (stereo not drawn) [VII-14, N-(4-(chlorodifluoromethoxy)phenyl)-2-(3-hydroxyazetidine-1-carbonyl)-1-isopropyl-7-(pyrimidin-5-yl)indoline-5-carboxamide]
19	131	CC(C)N1c2c(cc(C(=O)Nc3ccc(OC(F)(F)Cl)cc3)cc2-c2cncnc2)CC1C(=O)N(C)C (stereo not drawn) [VII-15, N5-(4-(chlorodifluoromethoxy)phenyl)-1-isopropyl-N2,N2-dimethyl-7-(pyrimidin-5-yl)indoline-2,5-dicarboxamide]
28	278	CNC(=O)C1Cc2cc(C(=O)Nc3ccc(OC(F)(F)Cl)cc3)cc(-c3cncnc3)c2N1C(C)C (stereo not drawn) [VII-16, N5-(4-(chlorodifluoromethoxy)phenyl)-1-isopropyl-N2-methyl-7-(pyrimidin-5-yl)indoline-2,5-dicarboxamide]
584	3230	CNCC1Cc2cc(C(=O)Nc3ccc(OC(F)(F)Cl)cc3)cc(-c3ccn[nH]3)c2N1C(C)C (stereo not drawn) [VII-17, N-(4-(chlorodifluoromethoxy)phenyl)-1-isopropyl-2-((methylamino)methyl)-7-(1H-pyrazol-5-yl) indoline-5-carboxamide]
124	484	CC(=O)N(C)CC1Cc2cc(C(=O)Nc3ccc(OC(F)(F)Cl)cc3)cc(-c3ccn[nH]3)c2N1C(C)C (stereo not drawn) [VII-18, N-(4-(chlorodifluoromethoxy)phenyl)-1-isopropyl-2-((N-methylacetamido)methyl)-7-(1H-pyrazol-5-yl)indoline-5-carboxamide]
133	1090	CC1c2cc(C(=O)Nc3ccc(OC(F)(F)Cl)cc3)cc(-c3ccn[nH]3)c2N(C(C)C)C1CO (stereo not drawn) [VII-19, N-(4-(chlorodifluoromethoxy)phenyl)-2-(hydroxymethyl)-1-isopropyl-3-methyl-7-(1H-pyrazol-5-yl)indoline-5-carboxamide]
165	2180	CCC1c2cc(C(=O)Nc3ccc(OC(F)(F)Cl)cc3)cc(-c3ccn[nH]3)c2N(C(C)C)C1CO (stereo not drawn) [VII-20, N-(4-(chlorodifluoromethoxy)phenyl)-3-ethyl-2-(hydroxymethyl)-1-isopropyl-7-(1H-pyrazol-5-yl)indoline-5-carboxamide]
158	1610	CC(C)N1c2c(cc(C(=O)Nc3ccc(OC(F)(F)Cl)cc3)cc2-c2cncnc2)CC1C(=O)O (stereo not drawn) [VII-21, 5-((4-(chlorodifluoromethoxy)phenyl)carbamoyl)-1-isopropyl-7-(pyrimidin-5-yl)indoline-2-carboxylic acid]
145	1350	CC(C)N1c2c(cc(C(=O)Nc3ccc(OC(F)(F)Cl)cc3)cc2-c2cncnc2)CC1C(=O)NCCS(C)(=O)=O (stereo not drawn) [VII-22, N5-(4-(chlorodifluoromethoxy)phenyl)-1-isopropyl-N2-(2-(methylsulfonyl)ethyl)-7-(pyrimidin-5-yl)indoline-2,5-dicarboxamide]
17	146	CC(C)N1c2c(cc(C(=O)Nc3ccc(OC(F)(F)Cl)cc3)cc2-c2cncnc2)CC1C(=O)N1CCOCC1 (stereo not drawn) [VII-23, N-(4-(chlorodifluoromethoxy)phenyl)-1-isopropyl-2-(morpholine-4-carbonyl)-7-(pyrimidin-5-yl)indoline-5-carboxamide]
1690	3860	CCC1c2cc(C(=O)Nc3ccc(OC(F)(F)Cl)cc3)cc(-c3ccn[nH]3)c2N(C(C)C)C1CNC (stereo not drawn) [VII-24, N-(4-(chlorodifluoromethoxy)phenyl)-3-ethyl-1-isopropyl-2-((methylamino)methyl)-7-(1H-pyrazol-5-yl)indoline-5-carboxamide]
58	243	CC(C)N1c2c(cc(C(=O)Nc3ccc(OC(F)(F)Cl)cc3)cc2-c2ccn[nH]2)CC1C(=O)N1CCOCC1 (stereo not drawn) [VII-25, N-(4-(chlorodifluoromethoxy)phenyl)-1-isopropyl-2-(morpholine-4-carbonyl)-7-(1H-pyrazol-5-yl)indoline-5-carboxamide]
39	199	CC(C)N1c2c(cc(C(=O)Nc3ccc(OC(F)(F)Cl)cc3)cc2-c2ccn[nH]2)CC1C(=O)N(C)C (stereo not drawn) [VII-26, N5-(4-(chlorodifluoromethoxy)phenyl)-1-isopropyl-N2,N2-dimethyl-7-(1H-pyrazol-5-yl)indoline-2,5-dicarboxamide]
85	366	CC(C)N1CC(CN(C)C)c2cc(C(=O)Nc3ccc(OC(F)(F)Cl)cc3)cc(-c3ccn[nH]3)c21 (stereo not drawn) [VII-27, N-(4-(chlorodifluoromethoxy)phenyl)-3-((dimethylamino)methyl)-1-isopropyl-7-(1H-pyrazol-5-yl)indoline-5-carboxamide]
132	575	CNCC1CN(C(C)C)c2c(-c3ccn[nH]3)cc(C(=O)Nc3ccc(OC(F)(F)Cl)cc3)cc21 (stereo not drawn) [VII-28, N-(4-(chlorodifluoromethoxy)phenyl)-1-isopropyl-3-((methylamino)methyl)-7-(1H-pyrazol-5-yl)indoline-5-carboxamide]
113	940	CC(C)N1c2c(cc(C(=O)Nc3ccc(OC(F)(F)Cl)cc3)cc2-c2ccn[nH]2)CC1C(=O)N1CC[C@@H](O)C1 (stereo partly drawn) [VII-29, N-(4-(chlorodifluoromethoxy)phenyl)-2-((R)-3-hydroxypyrrolidine-1-carbonyl)-1-isopropyl-7-(1H-pyrazol-5-yl)indoline-5-carboxamide]
16	94	COCCN(CCOC)C(=O)C1Cc2cc(C(=O)Nc3ccc(OC(F)(F)Cl)cc3)cc(-c3ccn[nH]3)c2N1C(C)C (stereo not drawn) [VII-30, N^5-(4-(chlorodifluoromethoxy)phenyl)-1-isopropyl-N2,N2-bis(2-methoxyethyl)-7-(1H-pyrazol-5-yl)indoline-2,5-dicarboxamide]
